Holding throughout (format): cell-based
Experiment [1] relates to Enterococcus faecalis ATCC29212. The settings on record: rifS, BHI Broth, 37° C., read-out: Antimicrobial activity (MIC).
Experiment [2] has as its system Streptococcus pneumoniae ATCC6303. The settings on record: rifS, THY Broth with 1 mg/mL catalase, 5% CO2, 37° C., read-out: Antimicrobial activity (MIC).
The test system of experiment [3] is Haemophilus influenzae ATCC10211. The settings on record: rifS, BHI Broth with NAD and hematin, 37° C., read-out: Antimicrobial activity (MIC).
The test system of experiment [4] is Staphylococcus aureus EN1252a gvrA^S84L grlA^S80F. The experiment in a line: microbe, parasite or virus in culture. Particulars: cipR, Cation-Adjusted Mueller-Hinton Broth, 37° C., read-out: Antimicrobial activity (MIC). How it is done: Representative compounds were assayed for antimicrobial activity as follows: Minimum Inhibitory Concentrations (“MICs”) were determined by the microbroth dilution method as per NCCLS guidelines (National Committee for Clinical Laboratory Standards. 2000. Methods for dilution antimicrobial susceptibility tests for bacteria that grow aerobically, 5th ed. M7-A5. National Committee for Clinical Laboratory Standards, Wayne, Pa.), except that all growth incubations were conducted at 37° C. Bacterial cultures were tested in the following bacteriological media: S. aureus, S. epidermidis, and E. coli in Cation-Adjusted Mueller-Hinton Broth, S. pneumoniae in THY Broth supplemented with 1 mg/mL catalase under 5% CO2 atmosphere, S. pyogenes in THY Broth, E. faecalis in BHI Broth, H. influenzae in BHI Broth supplemented with 0.75 μL of 1 mg/mL NAD and 150 μL of 1 mg/ml hematin per 5 mL, and M. smegmatis in Middlebrook Broth plus ADC Enrichment.
S. aureus EN1252a gyrA^S84L grlA^S80F is a quinolone-resistant strain due to double mutations to the genes confer DNA gyrase and topoisomerase IV.

Values after ≈ are worked out from the molar mass of the structure shown.

Here are results for 14 compounds from patent US7265107B2, “Rifamycin C-11 oxime cyclo derivatives effective against drug-resistant microbes” (Cumbre Pharmaceuticals Inc., priority 2004, dated 2007).

On to `CO[C@H]1/C=C/O[C@@]2(C)Oc3c(C)c(O)c4c(c3/C2=N/O)C2=NC3(CCN(CC(C)C)CC3)NC2=C(NC(=O)/C(C)=C\C=C\[C@H](C)[C@H](O)[C@@H](C)[C@@H](O)[C@@H](C)[C@H](OC(C)=O)[C@@H]1C)C4=O` [Example 4, 11-Deoxy-11-hydroxyimino-1′,4-didehydro-1-deoxy-1,4-dihydro-5′-(2-methylpropyl)-1-oxo-rifamycin XIV], for which the MIC was 0.5 to 31.2 µg/mL (≈ 580 to 36300 nM) in experiment [1], 0.06 to 31 ng/mL (≈ 0.0696 to 36 nM) in experiment [2], 0.125 to 8 µg/mL (≈ 145 to 9280 nM) in experiment [3] and 0.0005 to 0.125 µg/mL (≈ 0.58 to 145 nM) in experiment [4].

With `CO[C@H]1/C=C/O[C@@]2(C)Oc3c(C)c(O)c4c(=O)c(c5oc6cc(N7CCN(CC(C)C)CC7)cc(O)c6nc-5c4c3/C2=N/O)NC(=O)/C(C)=C\C=C\[C@H](C)[C@H](O)[C@@H](C)[C@@H](O)[C@@H](C)[C@H](OC(C)=O)[C@@H]1C` [Example 5, 11-Deoxy-11-hydroxyimino-1′,4-didehydro-1-deoxy-1,4-dihydro-3′-hydroxy-5′-[4-(2-methylpropyl)-1-piperazinyl]-1-oxo-rifamycin VIII], the MIC in experiment [1] was 0.5 to 31.2 µg/mL (≈ 523 to 32700 nM); in experiment [2] it was 0.06 to 31 ng/mL (≈ 0.0628 to 32.4 nM); in experiment [3] it was 0.125 to 8 µg/mL (≈ 131 to 8370 nM); in experiment [4] it was 0.0005 to 0.125 µg/mL (≈ 0.523 to 131 nM).

Consider `CO[C@H]1/C=C/O[C@@]2(C)Oc3c(C)c(O)c4c(=O)c(c5oc6cc(N7CCOCC7)cc(O)c6nc-5c4c3/C2=N/O)NC(=O)/C(C)=C\C=C\[C@H](C)[C@H](O)[C@@H](C)[C@@H](O)[C@@H](C)[C@H](OC(C)=O)[C@@H]1C` [Example 6, 11-Deoxy-11-hydroxyimino-1′,4-didehydro-1-deoxy-1,4-dihydro-3′-hydroxy-5′-(morpholin-4-yl)-1-oxo-rifamycin VIII], for which the MIC in experiment [1] lay within 0.5 to 31.2 µg/mL (≈ 555 to 34700 nM); in experiment [2], 0.06 to 31 ng/mL (≈ 0.0666 to 34.4 nM); in experiment [3], 0.125 to 8 µg/mL (≈ 139 to 8880 nM); in experiment [4], 0.0005 to 0.125 µg/mL (≈ 0.555 to 139 nM).

As to `CO[C@H]1/C=C/O[C@@]2(C)Oc3c(C)c(O)c4c(=O)c(c5oc6cc(N7CCN(C)CC7)cc(O)c6nc-5c4c3/C2=N/O)NC(=O)/C(C)=C\C=C\[C@H](C)[C@H](O)[C@@H](C)[C@@H](O)[C@@H](C)[C@H](OC(C)=O)[C@@H]1C` [Example 7, 11-Deoxy-11-hydroxyimino-1′,4-didehydro-1-deoxy-1,4-dihydro-3′-hydroxy-5′-(4-methyl-i-piperazinyl)-1-oxo-rifamycin VIII], the MIC is 0.5 to 31.2 µg/mL (≈ 547 to 34200 nM) in experiment [1], 0.06 to 31 ng/mL (≈ 0.0656 to 33.9 nM) in experiment [2], 0.125 to 8 µg/mL (≈ 137 to 8750 nM) in experiment [3] and 0.0005 to 0.125 µg/mL (≈ 0.547 to 137 nM) in experiment [4].

Consider `CCN1CCN(c2cc(O)c3nc4c5c6c7c(C)c(O)c5c(=O)c(c-4oc3c2)NC(=O)/C(C)=C\C=C\[C@H](C)[C@H](O)[C@@H](C)[C@@H](O)[C@@H](C)[C@H](OC(C)=O)[C@H](C)[C@@H](OC)/C=C/O[C@@](C)(O7)/C6=N\O)CC1` [Example 8, 11-Deoxy-11-hydroxyimino-1′,4-didehydro-1-deoxy-1,4-dihydro-3′-hydroxy-5′-(4-ethyl-1-piperazinyl)-1-oxo-rifamycin VIII], for which the MIC was 0.5 to 31.2 µg/mL (≈ 539 to 33700 nM) in experiment [1], 0.06 to 31 ng/mL (≈ 0.0647 to 33.4 nM) in experiment [2], 0.125 to 8 µg/mL (≈ 135 to 8620 nM) in experiment [3] and 0.0005 to 0.125 µg/mL (≈ 0.539 to 135 nM) in experiment [4].

For `CO[C@H]1/C=C/O[C@@]2(C)Oc3c(C)c(O)c4c(=O)c(c5oc6cc(N7CCN(C(C)C)CC7)cc(O)c6nc-5c4c3/C2=N/O)NC(=O)/C(C)=C\C=C\[C@H](C)[C@H](O)[C@@H](C)[C@@H](O)[C@@H](C)[C@H](OC(C)=O)[C@@H]1C` [Example 9, 11-Deoxy-11-hydroxyimino-1′,4-didehydro-1-deoxy-1,4-dihydro-3′-hydroxy-5′-(4-isopropyl-1-piperazinyl)-1-oxo-rifamycin VIII], the MIC was 0.5 to 31.2 µg/mL (≈ 531 to 33200 nM) in experiment [1], 0.06 to 31 ng/mL (≈ 0.0637 to 32.9 nM) in experiment [2], 0.125 to 8 µg/mL (≈ 133 to 8490 nM) in experiment [3] and 0.0005 to 0.125 µg/mL (≈ 0.531 to 133 nM) in experiment [4].

In the case of `CCCCN1CCN(c2cc(O)c3nc4c5c6c7c(C)c(O)c5c(=O)c(c-4oc3c2)NC(=O)/C(C)=C\C=C\[C@H](C)[C@H](O)[C@@H](C)[C@@H](O)[C@@H](C)[C@H](OC(C)=O)[C@H](C)[C@@H](OC)/C=C/O[C@@](C)(O7)/C6=N\O)CC1` [Example 10, 11-Deoxy-11-hydroxyimino-1′,4-didehydro-1-deoxy-1,4-dihydro-3′-hydroxy-5′-(4-butyl-1-piperazinyl)-1-oxo-rifamycin VIII], the MIC lay in the range of 0.5 to 31.2 µg/mL (≈ 523 to 32700 nM) in experiment [1], 0.06 to 31 ng/mL (≈ 0.0628 to 32.4 nM) in experiment [2], 0.125 to 8 µg/mL (≈ 131 to 8370 nM) in experiment [3] and 0.0005 to 0.125 µg/mL (≈ 0.523 to 131 nM) in experiment [4].

On to `CO[C@H]1/C=C/O[C@@]2(C)Oc3c(C)c(O)c4c(=O)c(c5oc6cc(N7CCN(CC8CCCCC8)CC7)cc(O)c6nc-5c4c3/C2=N/O)NC(=O)/C(C)=C\C=C\[C@H](C)[C@H](O)[C@@H](C)[C@@H](O)[C@@H](C)[C@H](OC(C)=O)[C@@H]1C` [Example 11, 11-Deoxy-11-hydroxyimino-1′,4-didehydro-1-deoxy-1,4-dihydro-3′-hydroxy-5′-(4-cyclohexylmethyl-1-piperazinyl)-1-oxo-rifamycin VIII], for which the MIC in experiment [1] is 0.5 to 31.2 µg/mL (≈ 502 to 31400 nM); in experiment [2], 0.06 to 31 ng/mL (≈ 0.0602 to 31.1 nM); in experiment [3], 0.125 to 8 µg/mL (≈ 125 to 8030 nM); in experiment [4], 0.0005 to 0.125 µg/mL (≈ 0.502 to 125 nM).

With `CO[C@H]1/C=C/O[C@@]2(C)Oc3c(C)c(O)c4c(=O)c(c5oc6cc(N7CCN(CC8CCN(C)CC8)CC7)cc(O)c6nc-5c4c3/C2=N/O)NC(=O)/C(C)=C\C=C\[C@H](C)[C@H](O)[C@@H](C)[C@@H](O)[C@@H](C)[C@H](OC(C)=O)[C@@H]1C` [Example 12, 11-Deoxy-11-hydroxyimino-1′,4-didehydro-1-deoxy-1,4-dihydro-3′-hydroxy-5 V-[4-(1-Methyl-piperidin-4-ylmethyl)-1-piperazinyl]-1-oxo-rifamycin VII], the MIC is 0.5 to 31.2 µg/mL (≈ 494 to 30900 nM) in experiment [1], 0.06 to 31 ng/mL (≈ 0.0593 to 30.7 nM) in experiment [2], 0.125 to 8 µg/mL (≈ 124 to 7910 nM) in experiment [3] and 0.0005 to 0.125 µg/mL (≈ 0.494 to 124 nM) in experiment [4].

As to `CO[C@H]1/C=C/O[C@@]2(C)Oc3c(C)c(O)c4c(=O)c(c5oc6cc(N7CCC(N8CCCCC8)CC7)cc(O)c6nc-5c4c3/C2=N/O)NC(=O)/C(C)=C\C=C\[C@H](C)[C@H](O)[C@@H](C)[C@@H](O)[C@@H](C)[C@H](OC(C)=O)[C@@H]1C` [Example 13, 11-Deoxy-11-hydroxyimino-1′,4-didehydro-1-deoxy-1,4-dihydro-3′-hydroxy-5′-[(1,4′)-bipiperidinyl-1′-yl]-1-oxo-rifamycin VIII], the MIC in experiment [1] is 0.5 to 31.2 µg/mL (≈ 509 to 31800 nM); in experiment [2], 0.06 to 31 ng/mL (≈ 0.0611 to 31.6 nM); in experiment [3], 0.125 to 8 µg/mL (≈ 127 to 8150 nM); in experiment [4], 0.0005 to 0.125 µg/mL (≈ 0.509 to 127 nM).

Turning to `CO[C@H]1/C=C/O[C@@]2(C)Oc3c(C)c(O)c4c(=O)c(c5oc6cc(N7CC(C)NC(C)C7)cc(O)c6nc-5c4c3/C2=N/O)NC(=O)/C(C)=C\C=C\[C@H](C)[C@H](O)[C@@H](C)[C@@H](O)[C@@H](C)[C@H](OC(C)=O)[C@@H]1C` (some centres unmarked) [Example 14, 11-Deoxy-11-hydroxyimino-1′,4-didehydro-1-deoxy-1,4-dihydro-3′-hydroxy-5′-(3,5-dimethyl-1-piperazinyl)-1-oxo-rifamycin VIII], the MIC in experiment [1] was in the range of 0.5 to 31.2 µg/mL (≈ 539 to 33700 nM); in experiment [2], 0.06 to 31 ng/mL (≈ 0.0647 to 33.4 nM); in experiment [3], 0.125 to 8 µg/mL (≈ 135 to 8620 nM); in experiment [4], 0.0005 to 0.125 µg/mL (≈ 0.539 to 135 nM).

For the compound `CO[C@H]1/C=C/O[C@@]2(C)Oc3c(C)c(O)c4c(=O)c(c5oc6cc(N7CC[C@@H](N)C7)cc(O)c6nc-5c4c3/C2=N/O)NC(=O)/C(C)=C\C=C\[C@H](C)[C@H](O)[C@@H](C)[C@@H](O)[C@@H](C)[C@H](OC(C)=O)[C@@H]1C` [Example 15, 11-Deoxy-11-hydroxyimino-1′,4-didehydro-1-deoxy-1,4-dihydro-3′-hydroxy-5′-(3-amino-pyrrolidin-1-yl)-1-oxo-rifamycin VIII], the MIC is 0.5 to 31.2 µg/mL (≈ 556 to 34700 nM) in experiment [1], 0.06 to 31 ng/mL (≈ 0.0667 to 34.4 nM) in experiment [2], 0.125 to 8 µg/mL (≈ 139 to 8890 nM) in experiment [3] and 0.0005 to 0.125 µg/mL (≈ 0.556 to 139 nM) in experiment [4].

With `CO[C@H]1/C=C/O[C@@]2(C)Oc3c(C)c(O)c4c(=O)c(c5oc6cc(N7CCCC7)cc(O)c6nc-5c4c3/C2=N/O)NC(=O)/C(C)=C\C=C\[C@H](C)[C@H](O)[C@@H](C)[C@@H](O)[C@@H](C)[C@H](OC(C)=O)[C@@H]1C` [Example 16, 11-Deoxy-11-hydroxyimino-1′,4-didehydro-1-deoxy-1,4-dihydro-3′-hydroxy-5′-(pyrrolidin-1-yl)-1-oxo-rifamycin VIII], the MIC in experiment [1] was 0.5 to 31.2 µg/mL (≈ 565 to 35300 nM); in experiment [2], 0.06 to 31 ng/mL (≈ 0.0678 to 35 nM); in experiment [3], 0.125 to 8 µg/mL (≈ 141 to 9040 nM); in experiment [4] it was 0.0005 to 0.125 µg/mL (≈ 0.565 to 141 nM).

For `CO[C@H]1/C=C/O[C@@]2(C)Oc3c(C)c(O)c4c(=O)c(c5oc6cc(N7CCN(CCOCCO)CC7)cc(O)c6nc-5c4c3/C2=N/O)NC(=O)/C(C)=C\C=C\[C@H](C)[C@H](O)[C@@H](C)[C@@H](O)[C@@H](C)[C@H](OC(C)=O)[C@@H]1C` [Example 17, 11-Deoxy-11-hydroxyimino-1′,4-didehydro-1-deoxy-1,4-dihydro-3′-hydroxy-5′-{4-[2-(2-hydroxy-ethoxy)-ethyl]-piperazin-1-yl}-1-oxo-rifamycin VIII], the MIC in experiment [1] lay in the range of 0.5 to 31.2 µg/mL (≈ 506 to 31600 nM); in experiment [2] it was 0.06 to 31 ng/mL (≈ 0.0607 to 31.4 nM); in experiment [3], 0.125 to 8 µg/mL (≈ 127 to 8100 nM); in experiment [4] it was 0.0005 to 0.125 µg/mL (≈ 0.506 to 127 nM).
